Test system: 777334-354-R2-J4-PDC tumor spheroids with HUVEC/MSC, viability
Assay: Anticancer human tumor 777334-354-R2-J4-PDC patient-derived pancreatic adenocarcinoma cell line growth inhibition [GQUAD]
Settings: for IC50: curve of first compound; for viability, T/C: stronger effect = lower value
Excerpt: DNA G-quadruplex Stabilizer Agents in Combinations in Complex Spheroids
A high-throughput screen of multi-cell type tumor spheroids was designed to identify active combinations of DNA G-quadruplex stabilizer agents and targeted small molecules. Complex spheroids include a stromal component modeled by human endothelial cells (HUVEC) and fibroblasts modeled by human mesenchymal stem cells (MSCs). The concentration ranges selected for each drug and investigational agent were based upon clinically achievable concentrations if the clinical Cmax of the agent was known.
Compounds. The drugs and investigational agents: pidnarulex (CX-5461; NSC782164), APTO-253 (NSC789042), BRACO-19 (NSC847499), peposertib (NSC802822), ceralasertib (NSC780249), elimusertib (NSC800525), camonsertib (NSC841442), AZD-1390 (NSC803789), olaparib (NSC753686), talazoparib (NSC767125), ART-558 (NSC835418), sotorasib (NSC818433), MRTX-1133 (NSC836407), SN-38 (NSC673596), topotecan (NSC609699), etoposide (NSC141540), doxorubicin (NSC123127), gemcitabine (NSC613327), 5-fluorouracil (NSC19893), paclitaxel (NSC125973), vemurafenib (NSC761431), panobinostat (NSC761190), R-306465 (JNJ-16241199; NSC773264), adavosertib (NSC754352), TP-3654 (NSC805149), carboplatin (NSC241240), KSQ-4279 (NSC840948), and staurosporine (NSC755774) were obtained from the National Cancer Institute (NCI) Developmental Therapeutics Program Chemical Repository (34). The FDA-approved anticancer drug set is available from the NCI Developmental Therapeutics Program. […] The stock solutions were prepared in dimethyl sulfoxide (DMSO, Sigma-Aldrich, St. Louis, MO, cat. D2650) at 800-fold the tested concentration and stored at -70 degrees C prior to their use. All drugs and investigational agents were tested over a range starting from a high concentration at or near the clinical Cmax and decreasing in half-log increments. If the clinical Cmax for an agent had not been determined, the highest concentration tested was 10 microM.
2.3 Cell Culture. All cells were maintained in an incubator at 37 degrees C and 5% CO2 with 95% humidity. The PDC lines were cultured according to standard operating procedures established by the NCI PDMR. All PDCs were thawed and cultured in Matrigel-coated flasks prepared with a working solution of 1X Ham's F-12 nutrient mix, without supplementation (Invitrogen, cat. 11765054), 100 U/mL penicillin-streptomycin (Invitrogen, cat. 15140122), and 2.5% Matrigel (Corning Inc., cat. 354248) for the first three passages. The 857933-349-R-J2-PDC line was cultured in 6C/Colon 1B media, which includes advanced DMEM/F-12 (Thermo Fisher Scientific, cat. 12634028), 10 mM HEPES (Thermo Fisher Scientific, cat. 15630080), 1X GlutaMAX supplement (Thermo Fisher Scientific, cat. 35050061), 0.1 mg/mL primocin (InvivoGen, cat. ant-pm-2), 10% defined fetal bovine serum, heat inactivated (HyClone Laboratories Inc., cat. SH30070.03HI), 50% L-WRN conditioned media (ATCC, cat. CRL-3276), 1.25 mM N-Acetyl-L-cysteine (Sigma-Aldrich, cat. A9165), 10 mM nicotinamide (Sigma-Aldrich, cat. N0636), 1X B-27 supplement (Thermo Fisher Scientific, cat. 17504044), 1X N-2 supplement (Thermo Fisher Scientific, cat. 17502048), 10 microM Y-27632 dihydrochloride (Tocris Bioscience, cat. 1254), and 50 ng/mL human EGF recombinant protein (Thermo Fisher Scientific, cat. PHG0311). The 485176-168-R4-J1-PDC line was cultured in Panc media, which includes all 6C/Colon 1B media components plus 100 ng/mL human FGF-10 (Thermo Fisher Scientific, cat. 100-26), 500 nM SB-431542 (Selleckchem, cat. S1067), and gastrin (Tocris, cat. 3006).
[…]

[1] = second compound 0.0316 µM, first compound 0.0316 µM
[2] = second compound 0.0316 µM, first compound 0.1 µM
[3] = second compound 0.0316 µM, first compound 0.316 µM
[4] = second compound 0.0316 µM, first compound 1 µM
[5] = second compound 0.0316 µM, first compound 3.16 µM
[6] = second compound 0.0316 µM, first compound 10 µM
[7] = second compound 0.1 µM, first compound 0.0316 µM
[8] = second compound 0.1 µM, first compound 0.1 µM
[9] = second compound 0.1 µM, first compound 0.316 µM
[10] = second compound 0.1 µM, first compound 1 µM
[11] = second compound 0.1 µM, first compound 3.16 µM
[12] = second compound 0.1 µM, first compound 10 µM
[13] = second compound 0.316 µM, first compound 0.0316 µM
[14] = second compound 0.316 µM, first compound 0.1 µM
[15] = second compound 0.316 µM, first compound 0.316 µM
[16] = second compound 0.316 µM, first compound 1 µM
[17] = second compound 0.316 µM, first compound 3.16 µM
[18] = second compound 0.316 µM, first compound 10 µM
[19] = second compound 1 µM, first compound 0.0316 µM
[20] = second compound 1 µM, first compound 0.1 µM
[21] = second compound 1 µM, first compound 0.316 µM
[22] = second compound 1 µM, first compound 1 µM
[23] = second compound 1 µM, first compound 3.16 µM
[24] = second compound 1 µM, first compound 10 µM
[25] = second compound 3.16 µM, first compound 0.0316 µM
[26] = second compound 3.16 µM, first compound 0.1 µM
[27] = second compound 3.16 µM, first compound 0.316 µM
[28] = second compound 3.16 µM, first compound 1 µM
[29] = second compound 3.16 µM, first compound 3.16 µM
[30] = second compound 3.16 µM, first compound 10 µM
[31] = second compound 10 µM, first compound 0.0316 µM
[32] = second compound 10 µM, first compound 0.1 µM
[33] = second compound 10 µM, first compound 0.316 µM
[34] = second compound 10 µM, first compound 1 µM
[35] = second compound 10 µM, first compound 3.16 µM
[36] = second compound 10 µM, first compound 10 µM
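Further: spheroids exposed to compounds for 7 days before readout.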

C#Cc1c(F)ccc2cc(O)cc(-c3ncc4c(N5CC6CCC(C5)N6)nc(OCC56CCCN5CC(F)C6)nc4c3F)c12 (centres undefined) + Cc1[nH]c2ccc(F)cc2c1-c1nc2c3cccnc3c3ncccc3c2[nH]1
IC50 (second compound 0.0316 µM): 81.4 nM
IC50 (second compound 0.1 µM): 47.8 nM
IC50 (second compound 0.316 µM): < 31.6 nM
IC50 (second compound 1 µM): < 31.6 nM
IC50 (second compound 3.16 µM): < 31.6 nM
IC50 (second compound 10 µM): < 31.6 nM
viability, T/C [1]: 54.6%
viability, T/C [2]: 52.6%
viability, T/C [3]: 37.2%
viability, T/C [4]: 34.6%
viability, T/C [5]: 25.9%
viability, T/C [6]: 20%
viability, T/C [7]: 56.3%
viability, T/C [8]: 37.2%
viability, T/C [9]: 32.2%
viability, T/C [10]: 38.1%
viability, T/C [11]: 26.3%
viability, T/C [12]: 20.8%
viability, T/C [13]: 51.2%
viability, T/C [14]: 38.6%
viability, T/C [15]: 34.9%
viability, T/C [16]: 39.1%
viability, T/C [17]: 21%
viability, T/C [18]: 24.6%
viability, T/C [19]: 48%
viability, T/C [20]: 33.9%
viability, T/C [21]: 27.6%
viability, T/C [22]: 26.1%
viability, T/C [23]: 21.9%
viability, T/C [24]: 18.1%
viability, T/C [25]: 26%
viability, T/C [26]: 10.1%
viability, T/C [27]: 9.09%
viability, T/C [28]: 7.85%
viability, T/C [29]: 10.6%
viability, T/C [30]: 8.93%
viability, T/C [31]: 16.9%
viability, T/C [32]: 9.99%
viability, T/C [33]: 10.5%
viability, T/C [34]: 10.1%
viability, T/C [35]: 8.96%
viability, T/C [36]: 8.05%

CC(=O)O[C@H]1C(=O)[C@@]2(C)[C@H]([C@H](OC(=O)c3ccccc3)[C@]3(O)C[C@H](OC(=O)[C@H](O)[C@@H](NC(=O)c4ccccc4)c4ccccc4)C(C)=C1C3(C)C)[C@]1(OC(C)=O)CO[C@@H]1C[C@@H]2O + Cc1[nH]c2ccc(F)cc2c1-c1nc2c3cccnc3c3ncccc3c2[nH]1
IC50 (second compound 0.0316 µM): 291 nM
IC50 (second compound 0.1 µM): 305 nM
IC50 (second compound 0.316 µM): 222 nM
IC50 (second compound 1 µM): 240 nM
IC50 (second compound 3.16 µM): < 31.6 nM
IC50 (second compound 10 µM): < 31.6 nM
viability, T/C [1]: 97.1%
viability, T/C [2]: 66%
viability, T/C [3]: 49.7%
viability, T/C [4]: 41.1%
viability, T/C [5]: 51.8%
viability, T/C [6]: 43.3%
viability, T/C [7]: 94.9%
viability, T/C [8]: 59.9%
viability, T/C [9]: 48.4%
viability, T/C [10]: 46.4%
viability, T/C [11]: 49.6%
viability, T/C [12]: 47.6%
viability, T/C [13]: 81.4%
viability, T/C [14]: 59.5%
viability, T/C [15]: 45.6%
viability, T/C [16]: 45.2%
viability, T/C [17]: 47.5%
viability, T/C [18]: 44.1%
viability, T/C [19]: 70.9%
viability, T/C [20]: 58.5%
viability, T/C [21]: 44.2%
viability, T/C [22]: 45.3%
viability, T/C [23]: 44.6%
viability, T/C [24]: 38.1%
viability, T/C [25]: 35.9%
viability, T/C [26]: 28%
viability, T/C [27]: 22.2%
viability, T/C [28]: 17.4%
viability, T/C [29]: 17.8%
viability, T/C [30]: 15%
viability, T/C [31]: 30.7%
viability, T/C [32]: 23%
viability, T/C [33]: 19.6%
viability, T/C [34]: 14%
viability, T/C [35]: 15.3%
viability, T/C [36]: 15.7%

Source: PubChem BioAssay AID2060499 (Molecular Pharmacology Branch, DTP, NCI, 2025)
